Reference: patent US20100292257A1, “USES OF 2-[PIPERIDINYL] METHYL-2, 3-DIHYDROIMIDAZO [1,2-C] QUINAZOLIN-5 (6H)-ONE FOR PROVIDING AN ANALGESIC EFFECT, ANTI-ALLERGIC EFFECT AND HISTAMINE H1 RECEPTOR ANTAGONISM EFFECT” (Medical and Pharmaceutical Industry Technology and …, priority 2007, published 2010)

Experiments:
[1] = system: CD-1 (Crl.) derived male mice; test: Phenylquinone (PQ)-induced writhing assay; assay type: in vivo; settings: 1 h before phenylquinone 2 mg/kg i.p., writhes 5th-10th min, vehicle 15.1 ± 1.4
Protocol: Vehicle (2% Tween 80, 10 ml/kg), PDC-130 or aspirin was orally administered to a group of eight CD-1 (Crl.) derived male mice weighing 24±2 g. One hour later, phenylquinone (2 mg/kg) was given by intraperitoneal injection. […] of animals was observed and recorded during a period of time from the 5th to 10th minutes after PQ administration, [Reference: Siegmund, E, Cadmus, R. and Lu, G. A method for evaluating both non-narcotic and narcotic analgesics. Proc. Soc. Exp. Biol. Med. 952: 729-731, 1957.]

[2] = system: CD-1 (Crl.) derived male mice; test: Acetic acid-induced writhing assay; assay type: in vivo; settings: 1 h before acetic acid 0.5%, 20 ml/kg i.p., writhes 5th-10th min, vehicle 12.4 ± 1.5
Protocol: Vehicle (2% Tween 80, 10 ml/kg), PDC-130 or aspirin (100 mg/kg) was administered orally to groups of eight CD-1 (Crl.) derived male mice, weighing 24±2 g, 1 hour before intraperitoneal injection of acetic acid (0.5%, 20 ml/kg). The number of writhes of animals was observed and recorded during a period of time from the 5th to the 10th minutes period after acetic acid administration. [Reference: Inoue. K., Motonaga, A. and Nishimura, T. Mechanism of antiinflammatory action of etodolac. Arzneim-Forsch./Drug Res. 41: 235-239, 1991.]

Wistar derived male rats = test: Passive cutaneous anaphylaxis; assay type: in vivo; settings: for Total Score: wheal diameter score, group of five rats, vehicle 50
Protocol: A group of five Wistar derived male rats weighing 80±20 g was passively sensitized 16 hours earlier by intradermal injection of reaginic antiovalbumin serum (0.5 ml) on two spots of the dorsal surface. […] Within one hour after administration of the above substances, the animals were challenged intravenously with a mixture of ovalbumin (1 mg) and Evans Blue dye (5 mg) and sacrificed 30 minutes later. The two wheal diameters were measured for each animal and scored as follows: • Score 0: diameter<0.05 cm • Score 1: diameter 0.05-0.20 cm • Score 2: diameter 0.2-0.4 cm • Score 3: diameter 0.4-0.6 cm • Score 4: diameter 0.6-0.8 cm • Score 5: diameter>0.8 cm
Maximum possible score for each animal total 5×2=10. [Reference: Goose, J. and Blair, A. M. J. N. Passive cutaneous anaphylaxis in the rat, induced with two homologous reagin-like antibodies and its specific inhibition with disodium chromoglycate. Immunology 16: 749-760, 1969.]
(Total score of vehicle group−Total score of tested group)/(Total score of vehicle group)×100%

Histamine H1 Receptor = target: T1, Histamine H1 Receptor (Rattus norvegicus, UniProt P31390); test: Histamine H1 antagonism (histamine-induced wheal); assay type: in vivo, rats; settings: for Total Score: 1 h before intradermal histamine, wheal diameter score, group of five rats, vehicle 50; for Inhibition (%): inhibition of histamine-induced blue colored wheal vs vehicle
T1 construct: immediately challenged with two intradermal injection of histamine; from tissue; host or cells: living Wistar derived male rats (skin, intradermal histamine challenge)
Protocol: After one hour, animals were injected with Evans Blue dye (5 mg/0.5 ml/rat) intravenously and immediately challenged with two intradermal injection of histamine (each 30 μg/0.05 ml). The animals were sacrificed 30 minutes later. The two wheal diameters were then measured for each animal and scored as follows: • Score 0: diameter<0.05 cm • Score 1: diameter 0.05-0.20 cm • Score 2: diameter 0.2-0.4 cm • Score 3: diameter 0.4-0.6 cm • Score 4: diameter 0.6-0.8 cm • Score 5: diameter>0.8 cm
Maximum possible score for each animal total 5×2=10.

T1 sequence (P31390 whole entry): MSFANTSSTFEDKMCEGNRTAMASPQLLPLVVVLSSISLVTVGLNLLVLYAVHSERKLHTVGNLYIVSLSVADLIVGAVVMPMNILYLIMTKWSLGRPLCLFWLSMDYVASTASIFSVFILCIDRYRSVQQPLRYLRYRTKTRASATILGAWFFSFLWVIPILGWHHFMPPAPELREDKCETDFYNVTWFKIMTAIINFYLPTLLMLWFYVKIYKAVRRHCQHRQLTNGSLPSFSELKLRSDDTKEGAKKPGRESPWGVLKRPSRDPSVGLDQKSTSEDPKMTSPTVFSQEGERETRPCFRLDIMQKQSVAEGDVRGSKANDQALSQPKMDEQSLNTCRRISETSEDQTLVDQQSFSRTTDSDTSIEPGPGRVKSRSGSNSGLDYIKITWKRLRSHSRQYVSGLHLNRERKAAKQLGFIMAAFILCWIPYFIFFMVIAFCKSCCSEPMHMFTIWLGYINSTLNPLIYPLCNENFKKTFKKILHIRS

CC(=O)Oc1ccccc1C(=O)O [Aspirin, aspirin, reference compound]
Number of Writhing ([1]; 100 mg/kg orally): 5.5 ± 1.5
Number of Writhing ([2]; 100 mg/kg orally): 2.4 ± 1.0

CN1CCC(=C2c3ccccc3C=Cc3ccccc32)CC1 [Cyproheptadine, cyproheptadine, reference compound]
Total Score (Wistar derived male rats; 1 mg/kg orally): 14
inhibition at 1 mg/kg (Wistar derived male rats; Rattus norvegicus, po, 1 mg/kg orally, inhibition of passive cutaneous anaphylaxis blue colored wheal vs vehicle): 72%

O=C(c1ccc(F)cc1)C1CCN(CC2CN3C(=O)Nc4ccccc4C3=N2)CC1 (stereo not drawn) [PDC-130, 2-[1-(4-p-fluorobenzoyl)piperidinyl]methyl-2,3-dihydroimidazo[1,2-c]-quinazolin-5(6H)-one]
Total Score (Histamine H1 Receptor; 3 mg/kg orally): 20
Inhibition (%) (Histamine H1 Receptor; 3 mg/kg orally): 60%
Total Score (Histamine H1 Receptor; 10 mg/kg orally): 14
Inhibition (%) (Histamine H1 Receptor; 10 mg/kg orally): 72%
Total Score (Histamine H1 Receptor; 30 mg/kg orally): 10
Inhibition (%) (Histamine H1 Receptor; 30 mg/kg orally): 80%
Inhibition (%) (Wistar derived male rats; 3 mg/kg orally, inhibition of passive cutaneous anaphylaxis blue colored wheal vs vehicle): 68%
Total Score (Wistar derived male rats; 3 mg/kg orally): 16
Inhibition (%) (Wistar derived male rats; 10 mg/kg orally, inhibition of passive cutaneous anaphylaxis blue colored wheal vs vehicle): 80%
Total Score (Wistar derived male rats; 10 mg/kg orally): 10
Inhibition (%) (Wistar derived male rats; 30 mg/kg orally, inhibition of passive cutaneous anaphylaxis blue colored wheal vs vehicle): 80%
Total Score (Wistar derived male rats; 30 mg/kg orally): 10
Number of Writhing ([1]; 0.03 mg/kg orally): 12.1 ± 1.6
Number of Writhing ([1]; 0.1 mg/kg orally): 6.4 ± 1.6
Number of Writhing ([1]; 0.3 mg/kg orally): 5.3 ± 1.7
Number of Writhing ([1]; 1 mg/kg orally): 2.8 ± 1.2
Number of Writhing ([2]; 0.03 mg/kg orally): 12.1 ± 1.6
Number of Writhing ([2]; 0.1 mg/kg orally): 5.0 ± 1.0
Number of Writhing ([2]; 0.3 mg/kg orally): 5.3 ± 1.1
Number of Writhing ([2]; 1 mg/kg orally): 2.1 ± 1.1
